Data on one compound can be found in patent US6262108A, “Medicinal use of cromoglycic acid compounds” (Kyoto Pharmaceutical Industries, Ltd., priority 1997, dated 2001).

“Also recorded” adds a separate entry of the source.

A short description of data set [1]: Acute Toxicity Test. Conditions: mouse, in vivo; oral, suspension, male ICR mice. The text has this:
The cromoglycic acid compound prepared in the above Example 1 was orally administered to male ICR mice (3 per group) in the form of a suspension.

Data set [2] relates to bone of feet and digits of the four limbs. The experiment in a line: X-ray score of bone destruction in collagen-induced arthritis mice. It counts as in vivo, male DBA/1J mice. Conditions: 100 mg/kg/day orally. The source says:
According to the method of Courtenay et al. (Courtenay, J. S. et al.: Immunization against heterologous type II collagen induces arthritis in mice. Nature, 283:666, 1980), male DBA/1J mice (CHARLES RIVER JAPAN INC.) were sensitized with bovine type II collagen to induce collagen-induced arthritis (rheumatoid arthritis). After the onset of arthritis, diethyl acetoacetylcromoglycate was orally administered and its inhibitory effect was examined. The method is detailed in the following.
Male DBA/1J mice (8-week-old) were pre-bred for one week and divided into the following 3 groups based on body weight (8-10 per group). […]
In addition, the whole body w as X-ray photographed and destruction state of the bone of feet and digits of the four limbs was scored (X-ray score) by a blind test according to the criteria of Gliman et al. (Gliman S. C. et al.: Immunological abnormalities in rats with adjuvant-induced ar thritis, II. Effect of antiarthritic therapy on immune function in relation to disease development, Int. J. Immunopharmacol. , 9:9-16, 1987), wherein normal was rated 0 point, destruction in one joint was 1 point, destruction in two or more joints, though not all joints, was 2 points, and destruction in all joints was 3 points, each mouse scoring 0 to 12 points in total.

Usually LD50 stands for the dose at which mortality reaches 50%. Higher therefore signals lower toxicity. As for `CCOC(=O)c1cc(=O)c2c(OCC(COc3cccc4oc(C(=O)OCC)cc(=O)c34)OC(=O)CC(C)=O)cccc2o1` [Example 1, Diethyl Acetoacetylcromoglycate], in data set [1], the 50% lethal dose (LD50) was greater than 1000 mg/kg. The “effect on X-ray score / bone destruction (in words)” value in data set [2] (day 42 after starting treatment, U-test with control group) was “signifiicant improvement in X-ray so re; also recorded: inhibition of bone destruction of feet and digits of the four limbs”. For the same compound, the X-ray score in data set [2] (day 83 after initial injection of collagen (day 42 after starting treatment), mean ± standard error (n = 8-10), control 10.20 ± 0.40, p < 0.01) is on record as 5.80 ± 1.10.
